How the values were obtained:
K289M pol β = biological target: T1, K289M pol β (Homo sapiens, UniProt P06746, K289M); assay: Single turnover polymerase activity (rapid-quench), K289M pol β; type: biochemical; settings: for Specificity (kpol/KD) / kpol / Kd: templating base C; for Kd: apparent dNTP dissociation constant; for D KD (i/c): KD(incorrect)/KD(correct) / D kpol (c/i): kpol(correct)/kpol(incorrect): dCTP incorrect, dGTP correct
T1 construct: made in house
Procedure: (§1) A solution containing 50 nM DNA and 200 nM polymerase was rapidly mixed with varying concentrations of dNTP at 37 °C in 50 mM Tris pH 8.0, 20 mM NaCl, 10 mM MgCl2, 2 mM DTT and 10% glycerol using a KinTek rapid-quench flow apparatus. Reactions were quenched with EDTA and the product was separated from the initial reactant on a 20% polyacrylamide gel containing 8 M urea. Rate of phosphodiester bond formation (kpol) and the apparent dNTP dissociation constant (KD) were extracted as previously reported ([16]). Fidelity was calculated using the catalytic specificity (kpol/KD) for correct (dGTP) and incorrect (dCTP): (kpol/KD)correct/(kpol/KD) incorrect ([37]).

WT pol β = biological target: T2, WT pol β (Homo sapiens, UniProt P06746); assay: Single turnover polymerase activity (rapid-quench), WT pol β; type: biochemical; settings: for Specificity (kpol/KD) / kpol / Kd: templating base C; for Kd: apparent dNTP dissociation constant; for D KD (i/c): KD(incorrect)/KD(correct) / D kpol (c/i): kpol(correct)/kpol(incorrect): dCTP incorrect, dGTP correct
T2 construct: made in house
Procedure: as §1

[1] = design: method as in earlier work; settings: pKa4 of the leaving group (β,γ-bridging group modified) ref 19, 22, 23; cited from earlier work
[2] = APC in Control sequence, listed as O
[3] = Control in APC sequence, listed as O

SMILES	Specificity (kpol/KD) (K289M pol β; APC in Control sequence) [M⁻¹ s⁻¹]	kpol (K289M pol β; APC in Control sequence) [s⁻¹]	Specificity (kpol/KD) (K289M pol β; APC sequence) [M⁻¹ s⁻¹]	kpol (K289M pol β; APC sequence) [s⁻¹]	Specificity (kpol/KD) (K289M pol β; Control in APC sequence) [M⁻¹ s⁻¹]	kpol (K289M pol β; Control in APC sequence) [s⁻¹]	Specificity (kpol/KD) (K289M pol β; Control sequence) [M⁻¹ s⁻¹]	kpol (K289M pol β; Control sequence) [s⁻¹]	Kd (K289M pol β; APC in Control sequence) [µM]	Kd (K289M pol β; APC sequence) [µM]	Kd (K289M pol β; Control in APC sequence) [µM]	Kd (K289M pol β; Control sequence) [µM]	kpol (WT pol β; APC in Control sequence) [s⁻¹]	kpol (WT pol β; APC sequence) [s⁻¹]	kpol (WT pol β; Control in APC sequence) [s⁻¹]	kpol (WT pol β; Control sequence) [s⁻¹]	Kd (WT pol β; APC in Control sequence) [µM]	Kd (WT pol β; APC sequence) [µM]	Kd (WT pol β; Control in APC sequence) [µM]	Kd (WT pol β; Control sequence) [µM]	other results
Nc1nc2c(ncn2C2CC(O)C(COP(=O)(O)OP(=O)(O)C(Cl)P(=O)(O)O)O2)c(=O)[nH]1 (mixture of isomers) [CHCl]	140000	1.37	400000	0.80	160000	1.01	410000	1.18	10	2	6.5	2.85	21.7	20.3	11.9	5.90	7.5	7.8	5.6	0.5	Specificity (kpol/KD) (WT pol β; APC in Control sequence): 2.9e+06 M⁻¹ s⁻¹; Specificity (kpol/KD) (WT pol β; APC sequence): 2.6e+06 M⁻¹ s⁻¹; Specificity (kpol/KD) (WT pol β; Control in APC sequence): 2.1e+06 M⁻¹ s⁻¹; Specificity (kpol/KD) (WT pol β; Control sequence): 1.18e+07 M⁻¹ s⁻¹
Nc1nc2c(ncn2C2CC(O)C(COP(=O)(O)OP(=O)(O)C(F)P(=O)(O)O)O2)c(=O)[nH]1 (mixture of isomers) [CHF]	1.31e+06	1.36	560000	0.90	1.25e+06	1.50	1.15e+06	1.50	1.04	1.6	1.2	1.3	25.1	36.4	19.9	10.2	5.2	7.5	2.2	4.2	Specificity (kpol/KD) (WT pol β; APC in Control sequence): 4.8e+06 M⁻¹ s⁻¹; Specificity (kpol/KD) (WT pol β; APC sequence): 4.9e+06 M⁻¹ s⁻¹; Specificity (kpol/KD) (WT pol β; Control in APC sequence): 9e+06 M⁻¹ s⁻¹; Specificity (kpol/KD) (WT pol β; Control sequence): 2.4e+06 M⁻¹ s⁻¹
Nc1nc2c(ncn2[C@H]2C[C@H](O)[C@@H](COP(=O)(O)OP(=O)(O)CP(=O)(O)O)O2)c(=O)[nH]1 [CH2]	250000	1.17	410000	0.70	380000	0.61	260000	0.58	4.75	1.7	1.6	2.2	6.30	9.00	3.10	2.20	6.9	7.1	2.2	0.5	Specificity (kpol/KD) (WT pol β; APC in Control sequence): 900000 M⁻¹ s⁻¹; Specificity (kpol/KD) (WT pol β; APC sequence): 1.3e+06 M⁻¹ s⁻¹; Specificity (kpol/KD) (WT pol β; Control in APC sequence): 1.4e+06 M⁻¹ s⁻¹; Specificity (kpol/KD) (WT pol β; Control sequence): 4.3e+06 M⁻¹ s⁻¹
Nc1ccn([C@H]2C[C@H](O)[C@@H](COP(=O)(O)OP(=O)(O)OP(=O)(O)O)O2)c(=O)n1 [dCTP]		0.05		0.05		0.02		0.02	766	267	758	778	0.04	0.22	0.03	0.07	389	340	456	1280	D KD (i/c): KD(incorrect)/KD(correct) (K289M pol β; APC in Control sequence): 511; D KD (i/c): KD(incorrect)/KD(correct) (K289M pol β; APC sequence): 205; D KD (i/c): KD(incorrect)/KD(correct) (K289M pol β; Control in APC sequence): 758; D KD (i/c): KD(incorrect)/KD(correct) (K289M pol β; Control sequence): 778; D KD (i/c): KD(incorrect)/KD(correct) (WT pol β; APC in Control sequence): 111; D KD (i/c): KD(incorrect)/KD(correct) (WT pol β; APC sequence): 148; D KD (i/c): KD(incorrect)/KD(correct) (WT pol β; Control in APC sequence): 268; D KD (i/c): KD(incorrect)/KD(correct) (WT pol β; Control sequence): 639
Nc1nc2c(ncn2[C@H]2C[C@H](O)[C@@H](COP(=O)(O)OP(=O)(O)OP(=O)(O)O)O2)c(=O)[nH]1 [dGTP]	1e+06	1.50	690000	0.90	1.37e+06		1.54e+06	1.52	1.5	1.3	1	1	28.5	35.5	22.1	12.6	3.5	2.3	1.7	2	kpol (K289M pol β; [2]): 1.53 s⁻¹; D kpol (c/i): kpol(correct)/kpol(incorrect) (K289M pol β; APC in Control sequence): 30; D kpol (c/i): kpol(correct)/kpol(incorrect) (K289M pol β; APC sequence): 18; kpol (K289M pol β; [3]): 1.42 s⁻¹; D kpol (c/i): kpol(correct)/kpol(incorrect) (K289M pol β; Control in APC sequence): 74; D kpol (c/i): kpol(correct)/kpol(incorrect) (K289M pol β; Control sequence): 76; Kd (K289M pol β; [2]): 1.53 µM; Kd (K289M pol β; [3]): 1.04 µM; Kd (K289M pol β; Control sequence, listed as O): 0.99 µM; pKa4 [1]: 8.9; Specificity (kpol/KD) (WT pol β; APC in Control sequence): 8.1e+06 M⁻¹ s⁻¹; D kpol (c/i): kpol(correct)/kpol(incorrect) (WT pol β; APC in Control sequence): 750; Specificity (kpol/KD) (WT pol β; APC sequence): 1.54e+07 M⁻¹ s⁻¹; D kpol (c/i): kpol(correct)/kpol(incorrect) (WT pol β; APC sequence): 161; Specificity (kpol/KD) (WT pol β; Control in APC sequence): 1.3e+07 M⁻¹ s⁻¹; D kpol (c/i): kpol(correct)/kpol(incorrect) (WT pol β; Control in APC sequence): 737; Specificity (kpol/KD) (WT pol β; Control sequence): 6.3e+06 M⁻¹ s⁻¹; D kpol (c/i): kpol(correct)/kpol(incorrect) (WT pol β; Control sequence): 194

— article PMC7145665, “A pre-catalytic non-covalent step governs DNA polymerase β fidelity” (Nucleic Acids Research, 2019)
